Molecules are shown by their SMILES. A value given as a limit tells only on which side of the number the result lay.

Data set [1] in a line: Acute toxicity in juvenile zebrafish assessed as fatality rate at 50 uM after 48 hrs. The conditions noted are these: in vivo.
Data set [2] is described as follows: Cytotoxicity against human RD cells assessed as reduction in cell viability incubated for 24 hrs by MTT assay. The conditions noted are these: RD cells. On the technique in general: Tetrazolium assays rely on reduction of a dye to a coloured formazan, in cell work by metabolically active cells.
Data set [3] in a line: Acute toxicity in juvenile zebrafish assessed as fatality rate at 100 uM after 24 hrs. Particulars: in vivo.
The nature of data set [4]: Acute toxicity in juvenile zebrafish assessed as fatality rate at 100 uM after 48 hrs. Particulars: in vivo.
Data set [5] in a line: Inhibition of capsid protein VP1 in Enterovirus 71 (FY)-Luc infected in human RD cells assessed as reduction in virus-induced cell death preincubated for 24 hrs followed by […] substrate addition and measured after 5 mins by chemiluminescence analysis. The format is cell-based, Enterovirus A71. Particulars: Enterovirus A.
Data set [6] is described as follows: Acute toxicity in juvenile zebrafish assessed as fatality rate at 50 uM after 24 hrs. Particulars: in vivo.
Data set [7] is described as follows: Acute toxicity in juvenile zebrafish assessed as fatality rate at 200 uM after 24 hrs. Particulars: in vivo.
A short description of data set [8]: Acute toxicity in juvenile zebrafish assessed as fatality rate at 20 uM after 48 hrs. The conditions noted are these: in vivo.
Data set [9] can be described thus: Acute toxicity in juvenile zebrafish assessed as fatality rate at 200 uM after 48 hrs. Particulars: in vivo.
Data set [10] in a line: in vivo. Particulars: zebrafish.
Description: Acute toxicity in juvenile zebrafish assessed as fatality rate at 150 uM after 48 hrs
Data set [11] can be described thus: in vivo. Particulars: zebrafish. This is another data set of the same source.
Description: Acute toxicity in juvenile zebrafish assessed as fatality rate at 150 uM after 24 hrs
Data set [12] can be described thus: Acute toxicity in juvenile zebrafish assessed as fatality rate at 20 uM after 24 hrs. The conditions noted are these: in vivo.

As usually defined, the mortality is the percentage killed. The CC50 is the concentration that lowers cell viability or growth by half. One may read the EC50 as the concentration that produces a half-maximal response. On to `CCO/N=C/c1ccc(OCCC(C)CCN2CCN(c3ccnc(OC)c3)C2=O)cc1` (centres undefined), for which, in data set [1], the mortality at 48 h, 50 µM was determined as 100%. In addition, the CC50 at 24 h in data set [2] is over 100 µM. Besides, the mortality at 24 h, 100 µM in data set [3] is 100%. In addition, the mortality at 48 h, 100 µM in data set [4] amounted to 100%. In data set [5], the 50% effective concentration (EC50) is 10 nM. In data set [6], the mortality at 24 h, 50 µM is 100%. The mortality at 24 h, 200 µM in [7] was determined as 100%. The mortality at 48 h, 20 µM in [8] amounted to 100%. Further, the mortality at 48 h, 200 µM in [9] was determined as 100%. In “in vivo [10]”, the mortality at 48 h, 150 µM was found to be 100%. Besides, in “in vivo [11]”, the mortality at 24 h, 150 µM was 100%. Besides, the mortality at 24 h, 20 µM in data set [12] stood at 100%.
In the case of `CCc1nc(-c2cc(C)c(OCCC(C)CCN3CCN(c4ccnc(N)c4)C3=O)c(C)c2)no1` (centres undefined), in data set [2], the CC50 at 24 h was 15.7 µM. In addition, the EC50 in data set [5] is over 25 nM.
Regarding `CCCc1nc(-c2cc(C)c(OCCC(C)CCN3CCN(c4ccnc(N)c4)C3=O)c(C)c2)no1` (centres undefined), the CC50 at 24 h in data set [2] is 14.1 µM. The half-maximal effective concentration (EC50) in data set [5] was over 25 nM.
On to `CCO/N=C/c1ccc(OCCC(C)CCN2CCN(c3ccccc3)C2=O)cc1` (centres undefined), for which the mortality at 48 h, 50 µM in [1] was 100%. The CC50 at 24 h in data set [2] is over 100 µM. In addition, the mortality at 24 h, 100 µM in [3] is 100%. Moreover, the mortality at 48 h, 100 µM in [4] was 100%. The EC50 in [5] came out at 1.12 nM. The mortality at 24 h, 50 µM in data set [6] is 100%. Also, the mortality at 24 h, 200 µM in [7] is 100%. The mortality at 48 h, 20 µM in data set [8] came out at 100%. Further, in data set [9], the mortality at 48 h, 200 µM is 100%. Moreover, the mortality at 48 h, 150 µM in the data set “in vivo [10]” was determined as 100%. The compound further yielded a mortality at 24 h, 150 µM in the data set “in vivo [11]” of 100%. Also, the mortality at 24 h, 20 µM in [12] was 100%.
As to `Cc1nc(-c2ccc(OCCC(C)CCN3CCN(c4ccnc(N)c4)C3=O)cc2)no1` (centres undefined), in data set [1], the mortality at 48 h, 50 µM was found to be 0%. Also, the CC50 at 24 h in data set [2] came out at 66.1 µM. Further, the mortality at 24 h, 100 µM in data set [3] came out at 0%. Besides, in data set [4], the mortality at 48 h, 100 µM was determined as 100%. The EC50 in data set [5] was 0.0061 nM. Besides, in data set [6], the mortality at 24 h, 50 µM was determined as 0%. Besides, the mortality at 24 h, 200 µM in data set [7] is 100%. For the same compound, in data set [8], the mortality at 48 h, 20 µM was 0%. In data set [9], the mortality at 48 h, 200 µM worked out at 100%. In addition, the mortality at 48 h, 150 µM in “in vivo [10]” was determined as 100%. This compound had a mortality at 24 h, 150 µM in “in vivo [11]” of 10%. The mortality at 24 h, 20 µM in [12] worked out at 0%.
Take `CCONC(=O)c1ccc(OCCC(C)CCN2CCN(c3ccnc(N)c3)C2=O)cc1` (centres undefined): the CC50 at 24 h in [2] was over 100 µM. Moreover, the 50% effective concentration (EC50) in data set [5] was over 25 nM.
In the case of `CC(CCOc1ccc(/C=N/O)cc1)CCN1CCN(c2ccnc(N)c2)C1=O` (centres undefined), the CC50 at 24 h in data set [2] is over 100 µM. The EC50 in [5] is over 25 nM.
Consider `CC(=O)Nc1cc(N2CCN(CCCCCOc3ccc(-c4noc(C)n4)cc3)C2=O)ccn1`, for which the CC50 at 24 h in data set [2] was over 100 µM. In addition, the EC50 in data set [5] was over 25 nM.
The matching figures for `Cc1cc(-c2noc(C(F)(F)F)n2)cc(C)c1OCCC(C)CCN1CCN(c2ccnc(N)c2)C1=O` (centres undefined): over 100 µM and over 25 nM.
`CCO/N=C/c1ccc(OCC#CCN2CCN(c3ccnc(N)c3)C2=O)cc1`: the CC50 at 24 h in data set [2] was over 100 µM. Further, in [5], the EC50 was over 25 nM.
The matching figures for `CCONCc1ccc(OCCC(C)CCN2CCN(c3ccnc(N)c3)C2=O)cc1` (centres undefined): 7.37 µM and 0.0119 nM.
The like results for `CCO/N=C/c1ccc(OCCC(C)CCN2CCN(c3cccc(N)c3)C2=O)cc1` (centres undefined) were, in that order, over 100 µM and over 25 nM.
On to `Cc1nc(-c2cc(C)c(OCCC(C)CCN3CCN(c4ccnc(N)c4)C3=O)c(C)c2)no1` (centres undefined), for which the 50% cytotoxic concentration (CC50) at 24 h in [2] was 28.8 µM. Further, in data set [5], the EC50 was over 25 nM.
Consider `CCO/N=C/c1ccc(OCCC(C)CCN2CCN(c3ccnc(O)c3)C2=O)cc1` (centres undefined), for which the CC50 at 24 h in data set [2] is over 100 µM. Besides, in [5], the EC50 is over 25 nM.
Take `CCO/N=C/c1ccc(OCCCCN2CCN(c3ccnc(N)c3)C2=O)cc1`: the 50% cytotoxic concentration (CC50) at 24 h in data set [2] was over 100 µM. In addition, the EC50 in data set [5] is over 25 nM.
The matching figures for `CC(CCN1CCN(Cc2ccccc2)CC1)CCN1CCN(c2ccnc(N)c2)C1=O` (centres undefined): over 100 µM and over 25 nM.
Regarding `CCO/N=C/c1cc(C)c(OCCC(C)CCN2CCN(c3ccnc(N)c3)C2=O)c(C)c1` (centres undefined), in [2], the CC50 at 24 h is 12.8 µM. The EC50 in data set [5] was over 25 nM.
